Reference: patent EP0664121A1, “Inhibition of ldl oxidation and atherosclerosis” (ELI LILLY AND COMPANY, priority 1993, dated 1995)

Legend:
[1] = system: Resident macrophages from the mouse peritoneal cavity; assay: Macrophage-mediated oxidation (cellular modification) of LDL, TBAR values; assay type: cell-based; conditions: LDL 1 mg/ml, 24 hrs, media-alone value subtracted
Protocol: Resident macrophages from the mouse peritoneal cavity were plated at 1 x 10⁶ cells per well in F10 media without serum. […] The wells designated media alone represents LDL incubated overnight on the same plate with F10 media without cells. This value was subtracted from the TBAR values obtained in the presence of resident macrophages and reflects the extent of cellular modification of LDL.

LDL = assay: Thiobarbituric acid assay of copper-induced LDL peroxidation; assay type: biochemical; conditions: 250 µg LDL in 1 ml, 5 µM CuSO₄, 5-18 hrs at 37 degrees C
Protocol: The thiobarbituric acid assay as described by Schuh et al., (PNAS 75: 3173, 1978) and modified by Morel et al., (Lab Invest 55: 419, 1986) was used to determine the degree of inhibition of LDL peroxidation by estradiol and Compound A of the invention. A 1 ml solution containing 250 micrograms (µg) of LDL with either estradiol or Compound A of the invention in amounts varying from 1-30 µM is incubated for 5-18 hrs at 37 degrees C in the presence of 5 µM CuSO₄. Following incubation, 1 ml of 25% trichloroacetic acid and 1 ml of 1% thiobarbituric acid is added. All samples are boiled for 45 minutes and fluorescence is measured at 515 nm excitation and 553 nm emission wavelengths. (Compound A is a compound of formula 1 wherein R₁ and R₃ are hydrogen, and R₂ is 1-pyrrolidino).

## O=C(c1ccc(OCCN2CCCC2)cc1)c1c(-c2ccc(O)cc2)sc2cc(O)ccc12 [Compound A]
[1]; 1 µM compound
  TBAR Units: 129 TBAR Units
[1]; 2.5 µM compound
  TBAR Units: 75 TBAR Units
[1]; 5 µm compound
  TBAR Units: 30 TBAR Units
LDL; 1µM compound
  TBAR Units: 142 TBAR UNITS
LDL; 5µM compound
  TBAR Units: 109 TBAR UNITS
LDL; 25µM compound
  TBAR Units: 78 TBAR UNITS

## C[C@]12CC[C@@H]3c4ccc(O)cc4CC[C@H]3[C@@H]1CC[C@@H]2O [Estradiol, estradiol, reference compound]
[1]; 25 µM compound
  TBAR Units: 30 TBAR Units
